Source: US11464749B2, “Bismuth-thiol compositions and methods of use” (Microbion Corporation, priority 2018, dated 2022)
≈ marks a conversion by molar mass, not a printed value. Where “and” joins values, the source holds several entries; their conditions need not be identical. Equal entries are not always repeated. Where two headings read alike, the source gives them in different places.

Assays:
[1] = Particle size distribution of exposure aerosols (In-Tox Mercer Impactor); settings: rat efficacy study exposure atmospheres
Burkholderia spp. = assay: organism not typed; type: cell-based; settings: read-out: Drug B MIC
P. aeruginosa [2] = assay: FIC checkerboard assay; type: cell-based; settings: Pseudomonas aeruginosa, read-out: Drug B MIC
B. cenocepacia = assay: FIC checkerboard assay; type: cell-based; settings: for MIC: Burkholderia cenocepacia, read-out: Drug B MIC
B. cepacia = assay: FIC checkerboard assay; type: cell-based; settings: Burkholderia cepacia, read-out: Drug B MIC
M. abscessus complex = assay: MIC against CF bacterial strains (Example 5); type: cell-based, Mycobacterium abscessus; settings: Mycobacteroides abscessus, read-out: MIC
Description: (§1) A range of CF-isolated strains of Mycobacterium avium and Mycobacterium abscessus were included; which allows for understanding of the activity against non-tubercular Mycobacteria (NTM). Two distinct bismuth-thiol compounds were evaluated, including BisEDT and BisBDT. […] The CF-isolates of greater clinical relevance, including both M abscessus spp. and Burkholderia spp., were both consistently found to be much more susceptible to BisEDT and BisBDT.

S. aureus ATCC 29213 = settings: control strain ATCC 29213; per CLSI M100-S24 or provided by Microbion; cited from earlier work
[3] = tested on: B. cenocepacia (B cepacia complex); assay: MIC against CF bacterial strains (Example 5)
P. aeruginosa [4] = assay: MIC against CF bacterial strains (Example 5); settings: Pseudomonas aeruginosa
Achromobacter spp. = assay: MIC against CF bacterial strains (Example 5)
[5] = tested on: B. cepacia (cepacia complex); assay: MIC against CF bacterial strains (Example 5); type: cell-based; settings: Burkholderia cepacia, strain BC17
Description: as §1

[6] = tested on: B. multivorans (cepacia complex); assay: MIC against CF bacterial strains (Example 5); type: cell-based; settings: Burkholderia multivorans, strain BC5b
Description: as §1

S. maltophilia = assay: MIC against CF bacterial strains (Example 5); settings: Stenotrophomonas maltophilia
C. glabrata = assay: Broth microdilution MIC, yeast (Example 11); type: cell-based; settings: FLU^R
C. tropicalis = assay: Broth microdilution MIC, yeast (Example 11); type: cell-based; settings: FLU^R
C. parapsilosis [7] = assay: Broth microdilution MIC, yeast (Example 11); type: cell-based
C. albicans = assay: Broth microdilution MIC, yeast (Example 11); type: cell-based; settings: Sensitive
C. parapsilosis [8] = settings: C. parapsilosis MMX 2323 (ATCC 22019), cited from earlier work

NC[C@H]1O[C@H](O[C@H]2[C@H](O)[C@@H](O[C@H]3O[C@H](CO)[C@@H](O)[C@H](N)[C@H]3O)[C@H](N)C[C@@H]2N)[C@H](N)C[C@@H]1O [Tobramycin, reference compound]
MMAD of exposure aerosol [1]: 2.81 μm
MIC (Burkholderia spp.): > 256 µg/mL
MIC (P. aeruginosa [2]; P. aeruginosa 6977, Tobramycin alone (checkerboard with BisEDT)): 128 µg/mL
MIC (P. aeruginosa [2]; P. aeruginosa 7745, Tobramycin alone (checkerboard with BisEDT)): 0.5 µg/mL
MIC (P. aeruginosa [2]; P. aeruginosa 8798, Tobramycin alone (checkerboard with BisEDT)): 0.016 µg/mL
MIC (P. aeruginosa [2]; P. aeruginosa 9108, Tobramycin alone (checkerboard with BisEDT)): 0.5 µg/mL
MIC (P. aeruginosa [2]; Tobramycin alone, FIC panel with BisEDT, P. aeruginosa 6322): 128 µg/mL
FICB (B. cenocepacia; B. cenocepacia 548, FIC of Tobramycin in combination with BisEDT, per checkerboard row): 0.5
MICB (B. cenocepacia; B. cenocepacia 548, MIC of Tobramycin in combination with BisEDT, per checkerboard row): 8 µg/mL and 16 µg/mL
FICB (B. cenocepacia; B. cenocepacia 813, FIC of Tobramycin in combination with BisEDT, per checkerboard row): 0.5 and 1
MIC (B. cenocepacia; B. cenocepacia 548, Tobramycin alone (panel with BisEDT)): 32 µg/mL
MIC (B. cenocepacia; B. cenocepacia 813, Tobramycin alone (panel with BisEDT)): 256 µg/mL
MIC (B. cepacia; B. cepacia 546, Tobramycin alone (checkerboard with BisEDT)): 32 µg/mL
MIC (B. cepacia; B. cepacia 1793, Tobramycin alone (checkerboard with BisEDT)): 16 µg/mL

NCC[C@H](O)C(=O)N[C@@H]1C[C@H](N)[C@@H](O[C@H]2O[C@H](CN)[C@@H](O)[C@H](O)[C@H]2O)[C@H](O)[C@H]1O[C@H]1O[C@H](CO)[C@@H](O)[C@H](N)[C@H]1O [Amikacin, reference compound]
MIC (M. abscessus complex; AMT0130-8, M abscessus/massiliense complex): 16 µg/mL (≈ 27.3 µM)
MIC (M. abscessus complex; AMT153-9, M abscessus/massiliense complex): 32 µg/mL (≈ 54.6 µM)
MIC (M. abscessus complex; AMT0493-2, M abscessus/massiliense complex, Amikacin resistant): > 64 µg/mL
MIC (M. abscessus complex; ATCC19977, ATCC 19977, M abscessus/massiliense complex, Macrolide resistant (inducible)): 8 µg/mL (≈ 13.7 µM)
Expected MIC: goal (acceptable range) (S. aureus ATCC 29213): 2 (1-4) mcg/mL
MIC ([3]; Burkholderia cenocepacia): > 64 µg/mL
MIC ([3]; strain AU197): >64 µg/mL
MIC (Burkholderia spp.): > 256 µg/mL
MIC (P. aeruginosa [4]): 16 µg/mL (≈ 27.3 µM)
MIC (P. aeruginosa [4]; strain AGR14, Multi-drug resistant): > 64 µg/mL
MIC (P. aeruginosa [4]; strain MR14, Multi-drug resistant): > 64 µg/mL
MIC (P. aeruginosa [2]; Amikacin alone, FIC panel with BisEDT, P. aeruginosa 6322): 64 µg/mL
MIC (P. aeruginosa [2]; P. aeruginosa 6977, Amikacin alone (checkerboard with BisEDT)): 16 µg/mL
MIC (P. aeruginosa [2]; P. aeruginosa 7745, Amikacin alone (checkerboard with BisEDT)): 4 µg/mL
MIC (P. aeruginosa [2]; P. aeruginosa 8798, Amikacin alone (checkerboard with BisEDT)): 128 µg/mL
MIC (P. aeruginosa [2]; P. aeruginosa 9108, Amikacin alone (checkerboard with BisEDT)): 4 µg/mL
MIC (Achromobacter spp.): > 64 µg/mL
MIC (Achromobacter spp.; Achromobacter): 64 µg/mL (≈ 109 µM)
MIC [5]: > 64 µg/mL
MIC [6]: > 64 µg/mL
MIC (S. maltophilia): 64 µg/mL (≈ 109 µM)
FICB (B. cenocepacia; B. cenocepacia 548, FIC of Amikacin in combination with BisEDT, per checkerboard row): 0.25 and 0.5
FICB (B. cenocepacia; B. cenocepacia 813, FIC of Amikacin in combination with BisEDT, per checkerboard row): 0.5 and 1
MIC (B. cenocepacia; B. cenocepacia 548, Amikacin alone (panel with BisEDT)): 128 µg/mL
MIC (B. cenocepacia): > 256 µg/mL
MIC (B. cepacia; B. cepacia 546, Amikacin alone (checkerboard with BisEDT)): 64 µg/mL
MIC (B. cepacia; B. cepacia 1793, Amikacin alone (panel with BisEDT)): 32 µg/mL

OC(Cn1cncn1)(Cn1cncn1)c1ccc(F)cc1F [fluconazole, Fluconazole, reference compound]
MIC (C. glabrata; Nakaseomyces glabratus, 24 h, C. glabrata MMX 7086, 24 hr, read-out: MIC): 32 µg/mL (≈ 104 µM)
MIC (C. glabrata; Nakaseomyces glabratus, 24 h, C. glabrata MMX 7318, 24 hr, read-out: MIC): > 64 µg/mL
MIC (C. glabrata; Nakaseomyces glabratus, 48 h, C. glabrata MMX 7086, 48 hr, read-out: MIC): 64 µg/mL (≈ 209 µM)
MIC (C. glabrata; Nakaseomyces glabratus, 48 h, C. glabrata MMX 7318, 48 hr, read-out: MIC): > 64 µg/mL
MIC (C. tropicalis; Candida tropicalis, 24 h, C. tropicalis MMX 7247, 24 hr, read-out: MIC): 64 µg/mL (≈ 209 µM)
MIC (C. tropicalis; Candida tropicalis, 24 h, C. tropicalis MMX 7248, 24 hr, read-out: MIC): 32 µg/mL (≈ 104 µM)
MIC (C. tropicalis; Candida tropicalis, 24 h, C. tropicalis MMX 7360, 24 hr, read-out: MIC): 64 µg/mL (≈ 209 µM)
MIC (C. tropicalis; Candida tropicalis, 48 h, C. tropicalis MMX 7247, 48 hr, read-out: MIC): > 64 µg/mL
MIC (C. tropicalis; Candida tropicalis, 48 h, C. tropicalis MMX 7248, 48 hr, read-out: MIC): > 64 µg/mL
MIC (C. tropicalis; Candida tropicalis, 48 h, C. tropicalis MMX 7360, 48 hr, read-out: MIC): > 64 µg/mL
MIC (C. parapsilosis [7]; Lodderomyces parapsilosis, 24 h, C. parapsilosis MMX 7370, FLU^R, 24 hr, read-out: MIC (converted)): 32 µg/mL (≈ 104 µM)
MIC (C. parapsilosis [7]; Lodderomyces parapsilosis, 24 h, C. parapsilosis MMX 7555, FLU^R, 24 hr, read-out: MIC (converted)): 32 µg/mL (≈ 104 µM)
MIC (C. parapsilosis [7]; Lodderomyces parapsilosis, 48 h, C. parapsilosis MMX 7370, FLU^R, 48 hr, read-out: MIC (converted)): 32 µg/mL (≈ 104 µM)
MIC (C. parapsilosis [7]; Lodderomyces parapsilosis, 48 h, C. parapsilosis MMX 7555, FLU^R, 48 hr, read-out: MIC (converted)): 64 µg/mL (≈ 209 µM)
MIC (C. parapsilosis [7]; Lodderomyces parapsilosis, ATCC22019, 24 h, C. parapsilosis MMX 2323 (ATCC 22019), QC, 24 hr, read-out: MIC (converted)): 2 µg/mL (≈ 6.53 µM)
MIC (C. parapsilosis [7]; Lodderomyces parapsilosis, ATCC22019, 48 h, C. parapsilosis MMX 2323 (ATCC 22019), QC, 48 hr, read-out: MIC (converted)): 2 µg/mL (≈ 6.53 µM)
MIC (C. albicans; Candida albicans, 24 h, C. albicans MMX 7039, 24 hr, read-out: MIC): 0.5 µg/mL (≈ 1.63 µM)
MIC (C. albicans; Candida albicans, 24 h, C. albicans MMX 7055, 24 hr, read-out: MIC): 0.25 µg/mL (≈ 0.816 µM)
MIC (C. albicans; Candida albicans, 48 h, C. albicans MMX 7039, 48 hr, read-out: MIC): 0.5 µg/mL (≈ 1.63 µM)
MIC (C. albicans; Candida albicans, 48 h, C. albicans MMX 7055, 48 hr, read-out: MIC): 0.5 µg/mL (≈ 1.63 µM)
MIC, CLSI QC range (C. parapsilosis [8]; 24 hr): 0.5 to 4 µg/mL
MIC, CLSI QC range (C. parapsilosis [8]; 48 hr): 1 to 4 µg/mL

C[C@@H]1[C@H](O)[C@@H](C)/C=C/C=C/C=C/C=C/C=C/C=C/C=C/[C@H](O[C@@H]2O[C@H](C)[C@@H](O)[C@H](N)[C@@H]2O)C[C@@H]2O[C@](O)(C[C@@H](O)C[C@@H](O)[C@H](O)CC[C@@H](O)C[C@@H](O)CC(=O)O[C@H]1C)C[C@H](O)[C@H]2C(=O)O [Amphotericin B]
MIC (C. glabrata; C. glabrata MMX 7086, 24 hr): 0.5 µg/mL (≈ 0.541 µM)
MIC (C. glabrata; C. glabrata MMX 7086, 48 hr): 1 µg/mL (≈ 1.08 µM)
MIC (C. glabrata; C. glabrata MMX 7318, 24 hr): 0.5 µg/mL (≈ 0.541 µM)
MIC (C. glabrata; C. glabrata MMX 7318, 48 hr): 1 µg/mL (≈ 1.08 µM)
MIC (C. tropicalis; C. tropicalis MMX 7247, 24 hr): 0.5 µg/mL (≈ 0.541 µM)
MIC (C. tropicalis; C. tropicalis MMX 7247, 48 hr): 1 µg/mL (≈ 1.08 µM)
MIC (C. tropicalis; C. tropicalis MMX 7248, 24 hr): 0.5 µg/mL (≈ 0.541 µM)
MIC (C. tropicalis; C. tropicalis MMX 7248, 48 hr): 1 µg/mL (≈ 1.08 µM)
MIC (C. parapsilosis [7]; C. parapsilosis MMX 2323 (ATCC 22019), QC, 24 hr): 0.5 µg/mL (≈ 0.541 µM)
MIC (C. parapsilosis [7]; C. parapsilosis MMX 2323 (ATCC 22019), QC, 48 hr): 1 µg/mL (≈ 1.08 µM)
MIC (C. parapsilosis [7]; C. parapsilosis MMX 7370, FLU^R, 24 hr): 0.5 µg/mL (≈ 0.541 µM)
MIC (C. parapsilosis [7]; C. parapsilosis MMX 7370, FLU^R, 48 hr): 1 µg/mL (≈ 1.08 µM)
MIC (C. albicans; C. albicans MMX 7055, 24 hr): 0.25 µg/mL (≈ 0.271 µM)
MIC (C. albicans; C. albicans MMX 7055, 48 hr): 0.5 µg/mL (≈ 0.541 µM)
MIC, CLSI QC range (C. parapsilosis [8]; 48 hr): 0.5 to 4 µg/mL
